According to patent US8080522B2, “Polyethlene glycol modifications of thymosin alpha-1” (Institute of Pharmacology and Toxicology Academy of …, priority 2005, dated 2011):
Like-named read-outs stand apart in the source and are kept apart here. Where no end group is shown, it is not given here.

Assays:
spleen cell = test: Interferon-γ production of spleen cells stimulated by Con A (double antibody sandwich ELISA); type: cell-based; conditions: for Concentration of IFN-γ: Con A 0.5 μg/mL, 24 hours, n = 3; for Enhancement percentage: versus Con A alone
Experimental: Prepare spleen cell suspension in sterile condition. Adjust cell concentration to 5×10^6 cell/mL by adding RPMI-1640 culture with 20% bovine serum. Add 0.5 mL cell suspension, 0.25 mL Con A (final concentration is 0.5 μg/mL) and 0.25 mL samples with different concentrations in 24-well plate; and add RPMI-1640 culture in control wells. Incubate the plates in a 5% CO2 chamber at 37° C. for 24 hours. Centrifuge and collect supernatant, test the content of IFN-γ in supernatant by double antibody sandwich ELISA. The protocol is according to the instruction on ELISA kit.

[1] = Plasma concentration / pharmacokinetics in mouse (competitive ELISA); type: in vivo; conditions: 300 μg per mouse, injected peritoneally, parameters in 24 h
Experimental: Coating antigen: Dilute Tα1 detection antigen stock solution to a final concentration of 2 μg/mL with coating solution, and add it into the wells of ELISA plate for 0.1 mL per well, and incubate at 4° C. for 5 days. Then wash the ELISA plate 3 times with washing buffer, each 0.2 mL/well and 3 min/time. Add 0.2 mL blocking buffer to each well, incubate for 1.5 hours at 37° C., wash plate 2 times by washing buffer, and spin dried.
Sample preparation: Weight sample accurately, dissolve it in saline to a concentration of 1.5 mg/mL. Administrate 0.2 Ml by injection to each mouse peritoneally. Collect blood sample in 3 min, 20 min, 40 min, 1 h, 2 h, 3 h, 6 h, 8 h, 12 h, and 24 h. Collect serum by centrifuge the blood samples for 5 minutes at 10000 rpm, stored at −20° C. in a freezer. o prepare test sample, […] was added by 0.1 mL 1:1500 rabbit anti-Tα1 serum (final concentration is 1:6000), and 0.2 mL CD-1® mouse serum, and […]. Prepare blank control at the same time. Total volume is 0.4 mL. Incubate for 2 hours at 37° C. To prepare standard sample, Tα1 0.1 mL with different concentrations from 0.0004 to 400 μg/mL was added by 0.1 mL 1:1500 rabbit anti-Tα1 serum (final concentration is 1:6000), and 0.2 mL CD-1® mouse serum. Prepare blank control at the same time. Total volume is 0.4 mL. Incubate for 2 hours at 37° C.
Sample Testing Add the prepared test sample and standard sample to ELISA plate, 0.1 mL/well, reacting for 1 hour in 37° C. chamber. Wash the plates 3 times, spin dryed. Add substrate 0.1 mL/well for 10 minutes. Add 2 mol/L H2SO4 0.05 mL to each well to terminate the reaction. Measure the OD value at 450 nm. Plot the standard curve with the concentration of Tα1 standard sample as abscissa and OD value as vertical coordinate. Calculate the content of test sample according to this standard curve.

[2] = Half-life in liver homogenate (HPLC); type: in vitro ADME; conditions: 37° C., sample 0.4 mg/mL or 0.8 mg/mL; for half-life: read-out: t1/2 in liver homogenate (converted)
Experimental: Experimental method: Prepare 0.4 mg/mL or 0.8 mg/mL sample aqueous solution in centrifuge tube, adding 50 μL liver homogenate. Then incubate for different time in 37° C. water bath. Terminate the reaction and precipitate liver homogenate protein by heating the mixture in boiling water for 5 minutes. Centrifuge it (10000 rpm) for 10 minutes. Analyze the supernatant by HPLC. The data was statistically analyzed by Origin Prof. 5.0.
HPLC: Column temperature: 25° C.; Flow rate 1.0 mL/min; Detection wavelength: 200 nm; Mobile phase A: 0.1% TFA/H2O; Mobile phase B: 0.1% TFA/70% CH3CN.

[3] = system: T lymphocyte (spleen cell); test: T lymphocyte proliferation stimulated by Con A (3H-TdR incorporation); type: cell-based, mouse; conditions: for 3H-TdR incorporation (cpm, x ± SD): Con A 0.5 μg/mL, 72 hours, n = 4; for Enhancement percentage: versus Con A alone
Experimental: Sacrifice mouse by draining artery blood, remove spleen in sterile condition, and make it to spleen cell suspension. After red blood cell lysis, wash for 3 times, and stain with Trypan Blue to count the living cells. The amount of living cells should be more than 95%. Dilute the cell concentration to 5×10^6 cell/mL by adding RPMI-1640 culture with 10% bovine serum. Add spleen cell suspension to a sterilized 96-well plate for 100 μL per well. The total amount is 200 μL per well (including 50 μL Con A and 50 μL medicament). Each sample concentration is repeated fro 3-4 wells. Incubate the plate in a 5% CO2 chamber for 72 hours, add 10 μci/mL ^3H-TdR 20 μL per well 16 hours before termination of the incubation, giving rise to a final concentration of 1.0 μci (37.0 KBq)/mL. Collect cells on filter membrane by using Herveste 96 cell harvester, dried in 80° C. oven for 20 minutes or dried in air. Put the dried filter membrane into 1450-423 microBeta sample bag, add scintillation liquid, and measure radioactivity (cpm) in Perkin Elmer MicroBeta Trilux 1450 Scintillation Counter.

[4] = serum, ip, 300 ug/animal, n = 3, read-out: Cmax
[5] = serum, ip, 300 ug/animal, n = 3, read-out: Tmax

Ac-CSDAAVDTSSEITTKDLKEKKEVVEEAEN-OH [BMJBT008]
Concentration of IFN-γ (spleen cell; Table 1-3, sample 1 μg/mL): 4323.8 ± 187.0 pg/mL | Enhancement percentage (spleen cell; Table 1-3, sample 1 μg/mL): +41.6% | Concentration of IFN-γ (spleen cell; Table 1-3, sample 10 μg/mL): 3115.0 ± 195.8 pg/mL | Enhancement percentage (spleen cell; Table 1-3, sample 10 μg/mL): +2.0% | Concentration of IFN-γ (spleen cell; Table 1-3, sample 100 μg/mL): 2975.5 ± 182.6 pg/mL | Enhancement percentage (spleen cell; Table 1-3, sample 100 μg/mL): −2.6% | AUC ([1]; n = 3): 1210 ng·h/mL | Cmax [1, 4]: 430 ng/mL | Tmax [1, 5]: 0.333 h | half-life [2]: < 1 h

Ac-SDAAVDTSSEITTKDLKEKKEVVCEAEN-OH [BMJBT007]
AUC ([1]; n = 3): 17900 ng·h/mL | Cmax [1, 4]: 5990 ng/mL | Tmax [1, 5]: 0.333 h | half-life [2]: 0.5 h

Ac-[Cys^5(mPEG5000-MAL)]Tα1 (Ac-SDAAC(mPEG5000‑maleimide)DTSSEITTKDLKEKKEVVEEAEN; UniProt P06454 2-29, looked up, variant V5C) [BMJB005]
t1/2 in liver homogenate [2]: 250.0 h

Ac-[Cys^8(mPEG5000-MAL)]Tα1 (Ac-SDAAVDTC(mPEG5000‑maleimide)SEITTKDLKEKKEVVEEAEN; UniProt P06454 2-29, looked up, variant S8C) [BMJB008]
t1/2 in liver homogenate [2]: 65.2 h

Ac-[Cys^16(mPEG5000-MAL)]Tα1 (Ac-SDAAVDTSSEITTKDC(mPEG5000‑maleimide)KEKKEVVEEAEN; UniProt P06454 2-29, looked up, variant L16C) [BMJB016]
Concentration of IFN-γ (spleen cell; Table 1-1, sample 1 μg/mL): 1426.8 ± 36.8 pg/mL | Enhancement percentage (spleen cell; Table 1-1, sample 1 μg/mL): +89.8% | Concentration of IFN-γ (spleen cell; Table 1-1, sample 10 μg/mL): 1295.7 ± 165.9 pg/mL | Enhancement percentage (spleen cell; Table 1-1, sample 10 μg/mL): +72.4% | Concentration of IFN-γ (spleen cell; Table 1-1, sample 100 μg/mL): 455.5 ± 79.3**↓ pg/mL | Enhancement percentage (spleen cell; Table 1-1, sample 100 μg/mL): −39.4% | 3H-TdR incorporation (cpm, x ± SD) ([3]; Table 2-1, sample 10 μg/mL): 21697 ± 3489 cpm | Enhancement percentage ([3]; Table 2-1, sample 10 μg/mL): +60.9% | 3H-TdR incorporation (cpm, x ± SD) ([3]; Table 2-1, sample 50 μg/mL): 22584 ± 1463 cpm | Enhancement percentage ([3]; Table 2-1, sample 50 μg/mL): +67.4% | 3H-TdR incorporation (cpm, x ± SD) ([3]; Table 2-1, sample 100 μg/mL): 20708 ± 1211 cpm | Enhancement percentage ([3]; Table 2-1, sample 100 μg/mL): +53.5% | AUC ([1]; n = 3): 120000 ng·h/mL | Cmax ([1]; n = 3): 6289 ng/mL | Tmax ([1]; n = 3): 6.000 h

Ac-[Cys^17(mPEG5000-MAL)]Tα1 (Ac-SDAAVDTSSEITTKDLC(mPEG5000‑maleimide)EKKEVVEEAEN; UniProt P06454 2-29, looked up, variant K17C) [BMJB017]
Concentration of IFN-γ (spleen cell; Table 1-1, sample 1 μg/mL): 1048.9 ± 181.4 pg/mL | Enhancement percentage (spleen cell; Table 1-1, sample 1 μg/mL): +39.5% | Concentration of IFN-γ (spleen cell; Table 1-1, sample 10 μg/mL): 856.4 ± 61.8 pg/mL | Enhancement percentage (spleen cell; Table 1-1, sample 10 μg/mL): +13.9% | Concentration of IFN-γ (spleen cell; Table 1-1, sample 100 μg/mL): 474.7 ± 10.2**↓ pg/mL | Enhancement percentage (spleen cell; Table 1-1, sample 100 μg/mL): −36.9% | 3H-TdR incorporation (cpm, x ± SD) ([3]; Table 2-1, sample 10 μg/mL): 18919 ± 3507 cpm | Enhancement percentage ([3]; Table 2-1, sample 10 μg/mL): +40.3% | 3H-TdR incorporation (cpm, x ± SD) ([3]; Table 2-1, sample 50 μg/mL): 21091 ± 3916 cpm | Enhancement percentage ([3]; Table 2-1, sample 50 μg/mL): +56.4% | 3H-TdR incorporation (cpm, x ± SD) ([3]; Table 2-1, sample 100 μg/mL): 16778 ± 2483 cpm | Enhancement percentage ([3]; Table 2-1, sample 100 μg/mL): +24.4% | AUC ([1]; n = 3): 83500 ng·h/mL | Cmax ([1]; n = 3): 11980 ng/mL | Tmax ([1]; n = 3): 1.000 h

BMJB012: PEG modification of Tα1, listed after BMJBT001 in Tables 1-2 and 2-2 (SDAAVDTSSEITTKDLKEKKEVVEEAEN; not fully specified; ends and bridges not checked; also: PEG conjugate, site not given here; UniProt P06454 2-29, looked up)
Concentration of IFN-γ (spleen cell; Table 1-2, sample 1 μg/mL): 4224.7 ± 183.1 pg/mL | Enhancement percentage (spleen cell; Table 1-2, sample 1 μg/mL): +29.7% | Concentration of IFN-γ (spleen cell; Table 1-2, sample 10 μg/mL): 3115.3 ± 377.1 pg/mL | Enhancement percentage (spleen cell; Table 1-2, sample 10 μg/mL): −4.4% | Concentration of IFN-γ (spleen cell; Table 1-2, sample 100 μg/mL): 3277.7 ± 181.0 pg/mL | Enhancement percentage (spleen cell; Table 1-2, sample 100 μg/mL): +0.6% | 3H-TdR incorporation (cpm, x ± SD) ([3]; Table 2-2, sample 10 μg/mL): 22772 ± 3222 cpm | Enhancement percentage ([3]; Table 2-2, sample 10 μg/mL): +95.6% | 3H-TdR incorporation (cpm, x ± SD) ([3]; Table 2-2, sample 50 μg/mL): 24066 ± 4004 cpm | Enhancement percentage ([3]; Table 2-2, sample 50 μg/mL): +106.7% | 3H-TdR incorporation (cpm, x ± SD) ([3]; Table 2-2, sample 100 μg/mL): 25176 ± 3656 cpm | Enhancement percentage ([3]; Table 2-2, sample 100 μg/mL): +116.3% | AUC ([1]; n = 3): 8150 ng·h/mL | Cmax ([1]; n = 3): 348 ng/mL | Tmax ([1]; n = 3): 12.000 h

BMJB015: PEG modification of Tα1, listed after BMJBT004 in Table 1-2 (SDAAVDTSSEITTKDLKEKKEVVEEAEN; ends and bridges not checked; also: PEG conjugate, site not given here; UniProt P06454 2-29, looked up)
Concentration of IFN-γ (spleen cell; Table 1-2, sample 1 μg/mL): 3908.2 ± 147.2 pg/mL | Enhancement percentage (spleen cell; Table 1-2, sample 1 μg/mL): +20.0% | Concentration of IFN-γ (spleen cell; Table 1-2, sample 10 μg/mL): 3962.9 ± 137.6 pg/mL | Enhancement percentage (spleen cell; Table 1-2, sample 10 μg/mL): +21.6% | Concentration of IFN-γ (spleen cell; Table 1-2, sample 100 μg/mL): 3526.2 ± 68.0 pg/mL | Enhancement percentage (spleen cell; Table 1-2, sample 100 μg/mL): +8.2% | AUC ([1]; n = 3): 106000 ng·h/mL | Cmax ([1]; n = 3): 5082 ng/mL | Tmax ([1]; n = 3): 3.000 h

BMJB020: PEG modification of Tα1 (SDAAVDTSSEITTKDLKEKKEVVEEAEN; ends and bridges not checked; also: PEG conjugate, site not given here; UniProt P06454 2-29, looked up)
Concentration of IFN-γ (spleen cell; Table 1-3, sample 1 μg/mL): 3998.3 ± 157.7 pg/mL | Enhancement percentage (spleen cell; Table 1-3, sample 1 μg/mL): +30.9% | Concentration of IFN-γ (spleen cell; Table 1-3, sample 10 μg/mL): 2654.0 ± 211.1 pg/mL | Enhancement percentage (spleen cell; Table 1-3, sample 10 μg/mL): −13.1% | Concentration of IFN-γ (spleen cell; Table 1-3, sample 100 μg/mL): 3135.8 ± 195.4 pg/mL | Enhancement percentage (spleen cell; Table 1-3, sample 100 μg/mL): +2.7% | AUC ([1]; n = 3): 4080 ng·h/mL | Cmax ([1]; n = 3): 172 ng/mL | Tmax ([1]; n = 3): 12.000 h
